The results in this text go back to patent US11358936B2, “Lysyl oxidase-like 2 inhibitors and uses thereof” (PharmAkea, Inc., priority 2015, dated 2022).

The target in this test is human LOXL2 (Homo sapiens (Human), UniProt Q9Y4K0). Put plainly: Human LOXL2 Amine Oxidase Activity Assay (Amplex Red fluorescence). The test is classed as biochemical. The settings on record: 2 h at 37° C. preincubation, DAP substrate.
Where [1] appears, read: concentrated conditioned media from CHO cells stably expressing human LOXL2, read-out: IC50.

SMILES strings stand for the structures. Counter-ions that a name gives are not always drawn. Like-named read-outs stand apart in the source and are kept apart here.

Sequence of human LOXL2 (Q9Y4K0 26-774): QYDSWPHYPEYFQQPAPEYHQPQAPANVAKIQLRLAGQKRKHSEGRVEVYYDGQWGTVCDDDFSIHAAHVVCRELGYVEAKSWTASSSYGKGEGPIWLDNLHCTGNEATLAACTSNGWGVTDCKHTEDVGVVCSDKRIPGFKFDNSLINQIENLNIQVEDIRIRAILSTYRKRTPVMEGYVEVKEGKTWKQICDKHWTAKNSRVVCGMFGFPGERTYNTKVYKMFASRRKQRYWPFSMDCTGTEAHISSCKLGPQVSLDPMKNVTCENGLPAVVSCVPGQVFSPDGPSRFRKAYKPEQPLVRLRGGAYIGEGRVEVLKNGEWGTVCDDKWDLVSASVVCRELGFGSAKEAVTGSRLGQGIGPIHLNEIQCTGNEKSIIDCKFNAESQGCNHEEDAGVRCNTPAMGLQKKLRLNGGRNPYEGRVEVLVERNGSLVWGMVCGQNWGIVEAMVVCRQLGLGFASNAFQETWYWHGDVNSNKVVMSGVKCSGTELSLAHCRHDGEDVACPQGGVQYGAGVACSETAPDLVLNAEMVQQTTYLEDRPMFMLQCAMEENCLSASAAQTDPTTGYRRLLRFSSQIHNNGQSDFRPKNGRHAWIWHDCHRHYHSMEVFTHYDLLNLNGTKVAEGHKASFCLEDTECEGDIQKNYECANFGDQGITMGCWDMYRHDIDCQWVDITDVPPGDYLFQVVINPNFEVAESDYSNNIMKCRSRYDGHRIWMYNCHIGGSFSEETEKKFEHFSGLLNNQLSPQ

As to `NCc1ccnc(N2CCCC2)c1` [Compound 4-10, 2-(1-Pyrrolidino)-4-(aminomethyl)pyridine], the 50% inhibitory concentration (IC50) (commonly the point on the concentration scale where inhibition reaches its midpoint) under setting [1] is over 1 µM.

For the compound `NCc1ccnc(-n2ccnc2)c1` [Compound 4-11, 2-(Imidazol-1-yl)-4-(aminomethyl)pyridine], under setting [1], the IC50 was under 0.3 µM.

Regarding `CCN1CCN(c2cc(CN)ccn2)CC1` [Compound 4-12, 2-(4-Ethylpiperazin-1-yl)-4-(aminomethyl)pyridine], the concentration for half-maximal inhibition (IC50) under setting [1] is over 1 µM.

On to `COCCNC(=O)c1cc(CN)ccn1` [Compound 4-13, 4-(Aminomethyl)-N-(2-methoxyethyl)picolinamide hydrochloride], for which the IC50 under setting [1] is under 0.3 µM.

As for `NCc1ccnc(NC(=O)CC(F)(F)F)c1` [Compound 4-14, trifluoroacetate], where the note is “IC50, concentrated conditioned media from CHO cells stably expressing human LOXL2”, the IC50 lay in the range of 0.3 to 1 µM.
